Where a name gives a salt, the structure may show the parent alone. Read-outs that look alike come from different tables or passages of the source.
What was measured:
[1] = biological target: T1, β-lactoglobulin (β-Lg) (Bos taurus, UniProt P02754); settings: cited from earlier work; for binding to β-Lg reported (in words): in vitro
T1 construct: Isolation of β-Lg from Whey; from tissue; host or cells: whey (milk), purified by bioselective adsorption on N-retinyl-Celite
T1 sequence (P02754 17-178): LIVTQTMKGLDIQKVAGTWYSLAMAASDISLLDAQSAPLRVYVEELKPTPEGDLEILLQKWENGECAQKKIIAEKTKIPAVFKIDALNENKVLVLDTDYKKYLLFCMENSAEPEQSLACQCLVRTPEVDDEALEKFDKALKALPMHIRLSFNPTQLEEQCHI

[2] = biological target: T1, β-lactoglobulin (β-Lg); test: Fluorescence emission/excitation spectra of β-Lg with and without ligand; type: binding; settings: for energy transfer between protein tryptophanyl residues and ligand: emission 390 nm; for ligand fluorescence at 412 nm with excitation around 287 nm in presence of β-Lg: 2 μM ligand, 1 μM β-Lg, pH 7.0, 23 °C
Method: (§1) Fluorescence spectra were recorded at 23 ° C. with a System 3 Scanning Spectrofluorometer (Optical Technology Devices, Inc., Elmsford, N.Y.) using the ratio mode. Excitation and emission spectra were obtained with 1 μM solutions of β-Lg in 50 mM sodium phosphate, pH 7.0, both in the presence and absence of 2 μM concentrations of the various ligands. Titration of β-Lg with the various ligands was quantified by measuring the fluorescence quenching of the protein tryptophanyl residues (excitation at 287 nm, emission measured at 332 nm). The spectrofluorometer cuvette contained 2.5 ml of 1 μM β-Lg in the phosphate buffer to which 2.5-μl increments of the ligand solution in ethanol or ethyl ether were added with a micropipette. Dufour et al., (1990) FEBS Lett. 277, 223. […] Cogan et al., (1976) Eur. J. Biochem. 65, 71.
(§2) The titration can also be followed by measuring the increase in vitamin D or cholesterol fluorescence that was due to energy transfer from the tryptophanyl residue. Thus, with excitation at 287 nm, emission was measured at 412 nm for vitamin D or 390 nm for cholesterol.
Binding of hydrophobic ligands in proximity to Trp19 results in energy transfer between this protein residue and the ligand, and thus changes in the fluorescence emission spectra can be used to follow complex formation. Fluorescence emission spectra of β-Lg with and without bound vitamin D2 that result from excitation of tryptophanyl residues at 287 nm are shown in FIG. 1.
(§3) Possible binding of vitamin D3 to β-Lg was also investigated by recording the fluorescence emission at 412 nm as a function of the excitation wavelength for vitamin solutions with and without added β-Lg (FIG. 4). […] In a titration experiment, the protein fluorescence at 332 nm with excitation at 287 nm was determined as a function of vitamin D3 concentration (FIG. 3). […] Also, the increase of vitamin D3 fluorescence at 412 nm with excitation at 287 nm for varying vitamin concentrations can be plotted according to Equation [1] as shown in FIG. 5B.
The potential binding of both cholesterol and 7-dehydrocholesterol to β-Lg was examined by fluorescence spectroscopy, essentially as described above for vitamin D (Example 3). […] A plot of the data that were obtained with varying cholesterol concentrations according to Equation [1] from Example 3 was similar to that for vitamin D3, shown in FIG. 5.
Studies were undertaken to evaluate whether other fat-soluble vitamins bind to β-Lg. Fluorescence emission spectra of β-Lg in the presence and absence of vitamin E, vitamin K1, or vitamin K2 were obtained essentially as described in Example 3.

[3] = biological target: T1, β-lactoglobulin (β-Lg); test: Fluorescence titration of β-Lg with linoleic acid, conjugated linoleic acid and its methyl ester (Trp19 enhancement); type: binding; settings: 10 μM β-Lg
Description: The titration data can be used to evaluate the equilibrium dissociation constant and the number of binding sites per monomer as has been previously described. […] Biophys. […] The linear regression equation
(§4) PT a=(1/n)[RT a/(1-a)]-Kd /n
(§5) is used to calculate n, the number of binding sites per molecule of protein and Kd, the apparent dissociation constant. In this equation, PT is total protein concentration, and RT is total ligand concentration.

[4] = biological target: T1, β-lactoglobulin (β-Lg); test: Fluorescence titration of β-Lg with ligands (Equation [1]; Kd and n); type: binding; settings: for binding affinity, comparative (in words): compared with other ligands of Table 1 or the retinoids; for molecules bound per molecule of protein: per molecule of protein / β-Lg monomer
Method: as §1, §2
The titration data can be used to evaluate the equilibrium dissociation constant and the number of binding sites per monomer as has been previously described. Cogan et al., (1976) Eur. J. Biochem. 65, 71; Dufour and Haertle, (1991) Biochim. Biophys. Acta 1079, 316; Wang et al., (1997) J. Dairy Sci. 80, 1047. The linear regression equation
as §4, §5
Cho et al., (1994) J. Biol. Chem. 269, 11102; Dufour and Haertle, (1991) Biochim. Biophys. Acta 1079, 316; Wang et al., (1997) J. Dairy Sci. 80, 1047. […] Cho et al., (1994) J. Biol. Chem. 269, 11102; Dufour and Haertle, (1991) Biochim. Biophys. Acta 1079, 316; Wang et al., (1997) J. Dairy Sci. 80, 1047.
as §3
Dufour and Haertle, (1991) Biochim. Biophys. Acta 1079, 316; Wang et al., (1997) J. Dairy Sci. 80, 1047.
The potential binding of both cholesterol and 7-dehydrocholesterol to β-Lg was examined by fluorescence spectroscopy, essentially as described above for vitamin D (Example 3).
The titration data were used to calculate the equilibrium dissociation constant (Kd) and the number of binding sites per β-Lg monomer (n), as described in Example 3.

[5] = 1 μM β-Lg, 50 mM phosphate pH 7.0, 23 °C, triplicate titrations (vitamin D2: five; ergosterol: single)
[6] = Kd, Table 2, β-Lg titration as in Example 3
[7] = 1 μM β-Lg, 50 mM phosphate pH 7.0, 23 °C, triplicate titrations (vitamin D2: five; ergosterol: single), read-out: Kd (apparent dissociation constant), Table 1
[8] = β-Lg titration as in Example 3, read-out: Kd, Table 2

## Cc1c2ccncc2c(C)c2c1[nH]c1ccccc12 [ellipticine]
[1]
  binding to β-Lg reported (in words): reported to bind

## CC1=CC(=O)c2ccccc2C1=O [Vitamin K3, menadione]
[2]
  β-Lg fluorescence, 300 to 360 nm: No quenching
[2]; inferred from absence of quenching
  binding in the β-Lg calyx: does not bind

## CCCCC/C=C\C/C=C\CCCCCCCC(=O)O [LA, linoleic acid]
[3]; 27 °C, read-out: order of Kd (text, Example 7)
  Kd: ~100 nM
[3]; pH 7, 27 °C, enhancement at 332 nm, excitation 287 nm
  n, Table 3: 1.01 mol/mol β-LG
[3]; pH 7, 27 °C, enhancement at 332 nm, excitation 287 nm, read-out: Kd, Table 3
  Kd: 143 nM
[1]; From Frapin et al., J. Protein Chem. 12, 443 (1993)
  n, Table 3, from Frapin et al.: 0.83 mol/mol β-LG
[1]; From Frapin et al., J. Protein Chem. 12, 443 (1993), read-out: Kd, Table 3, from Frapin et al.
  Kd: 190 nM

## CC(C)CCC[C@@H](C)[C@H]1CC[C@H]2[C@@H]3CC=C4C[C@@H](O)CC[C@]4(C)[C@H]3CC[C@]12C [Cholesterol, cholesterol]
[4]
  Kd: 34.9 nM
[4]; [5]
  n (number of binding sites per molecule of protein), Table 1: 2.36 mol/mol of protein
[4]; [6]
  Kd: 34.9 nM
[4]; β-Lg titration as in Example 3
  n, Table 2: 2.4 mol/mol β-LG
[2]
  energy transfer between protein tryptophanyl residues and ligand: energy was transferred

## Cc1c(C)c2c(c(C)c1O)CCC(C)(CCCC(C)CCCC(C)CCCC(C)C)O2 (stereo not drawn) [Vitamin E, α-tocopherol]
[4]
  n values, molecules bound per β-Lg monomer (Example 6): 1
[4]; Kd values (Example 6)
  Kd: 91 nM
[4]; [6]
  Kd: 91 nM
[4]; order of magnitude of Kd (Example 6)
  Kd: ~1 nM
[4]; β-Lg titration as in Example 3
  n, Table 2: 1.0 mol/mol β-LG
[2]
  β-Lg fluorescence, 280 to 300 nm: increase
  β-Lg fluorescence, 300 to 360 nm: no change

## C=C1CC[C@H](OS(=O)(=O)O)C/C1=C/C=C1\CCC[C@]2(C)[C@@H]([C@H](C)CCCC(C)C)CC[C@@H]12 [Vitamin D3 sulfate, vitamin D3 sulfate]
[4]
  Kd: 30.3 nM
  mol bound per mol of protein (Example 4): 2 mol~mol^-1
[4]; [5]
  n (number of binding sites per molecule of protein), Table 1: 1.74 mol/mol of protein

## CC1=C(/C=C/C(C)=C/C=C/C(C)=C/C(=O)O)C(C)(C)CCC1 [Retinoic acid, retinoic acid]
[4]; [6]
  Kd: 17 nM
[4]; β-Lg titration as in Example 3
  n, Table 2: 0.9 mol/mol β-LG

## CCCCCCCCCCCCCCCC(=O)O [Palmitic acid]
[4]; [6]
  Kd: 490 nM
[4]; β-Lg titration as in Example 3
  n, Table 2: 1.2 mol/mol β-LG

## CCCCCCCCCCCCCCCC(=O)OC/C=C(C)/C=C/C=C(C)/C=C/C1=C(C)CCCC1(C)C [Retinyl palmitate (R), Retinyl palmitate]
[4]; β-Lg titration as in Example 3
  n, Table 2: 0.8 mol/mol β-LG

## CC(C)[C@@H](C)/C=C/[C@@H](C)[C@H]1CC[C@H]2C3=CC=C4C[C@@H](O)CC[C@]4(C)[C@H]3CC[C@]12C [Ergosterol, ergosterol]
[4]
  mol bound per mol of protein (Example 4): 2 mol~mol^-1
  binding affinity, comparative (in words): significantly greater
[4]; [5]
  n (number of binding sites per molecule of protein), Table 1: 2.02 mol/mol of protein
[4]; [7]
  Kd: 6.25 nM

## CC1=C(C/C=C(\C)CCC[C@H](C)CCC[C@H](C)CCCC(C)C)C(=O)c2ccccc2C1=O [Vitamin K1, 2-methyl-3-phytyl-1,4-napthho-quinone]
[4]
  n values, molecules bound per β-Lg monomer (Example 6): 1.9
  molecules bound per molecule of protein: ~2 molecules
[4]; read-out: Kd values (Example 6)
  Kd: 90 nM
[4]; read-out: order of magnitude of Kd (Example 6)
  Kd: ~1 nM
[4]; β-Lg titration as in Example 3
  n, Table 2: 1.9 mol/mol β-LG
[4]; [8]
  Kd: 90 nM
[2]
  β-Lg fluorescence, 280 to 300 nm: increase
  β-Lg fluorescence, 300 to 360 nm: quenched

## C=C1CC[C@H](O)C/C1=C/C=C1\CCC[C@]2(C)[C@@H]([C@H](C)CCCC(C)C)CC[C@@H]12 [Vitamin D3, cholecalciferol]
[4]
  Kd: 36 nM
  molecules bound per molecule of protein: 2 molecules
[4]; [5]
  n (number of binding sites per molecule of protein), Table 1: 2.01 mol/mol of protein
[4]; [6]
  Kd: 36 nM
[4]; β-Lg titration as in Example 3
  n, Table 2: 2.0 mol/mol β-LG
[2]
  ligand fluorescence at 412 nm with excitation around 287 nm in presence of β-Lg: increased intensity

## CCCCCCCCCCCCCCCC(=O)OC/C=C(C)/C=C/C=C(C)/C=C/C1=C(C)CCCC1(C)C [Retinyl palmitate (P), Retinyl palmitate]
[4]; β-Lg titration as in Example 3
  n, Table 2: 1.2 mol/mol β-LG

## C=C1CC[C@H](O)C/C1=C/C=C1\CCC[C@]2(C)[C@@H]([C@H](C)/C=C/[C@H](C)C(C)C)CC[C@@H]12 [Vitamin D2, ergocalciferol]
[4]
  mol bound per mol of protein (Example 4): 2 mol~mol^-1
  binding affinity, comparative (in words): significantly greater
[4]; [5]
  n (number of binding sites per molecule of protein), Table 1: 2.00 mol/mol of protein
[4]; [7]
  Kd: 4.91 nM
[4]; 1 μM β-Lg, emission 332 nm
  ligand concentration at which fluorescence quenching appeared to reach a maximum: ~2 µM
[4]; compared with vitamin A and other retinoids
  affinity of β-Lg relative to that for vitamin A and other retinoids (greater by): about 10 fold
[4]; quenching at 332 nm, excitation 287 nm, five titrations, 1 μM β-Lg
  n: 2.00±0.16
[4]; quenching at 332 nm, excitation 287 nm, five titrations, 1 μM β-Lg, read-out: Kd
  Kd: 4.91 ± 3.28 nM
[4]; β-Lg titration as in Example 3
  n, Table 2: 2.0 mol/mol β-LG
[4]; [8]
  Kd: 4.9 nM
[2]
  β-Lg fluorescence, 300 to 360 nm: quenched
  ligand fluorescence at 412 nm with excitation around 287 nm in presence of β-Lg: increased

## CC(C)CCC[C@@H](C)[C@H]1CC[C@H]2C3=CC=C4C[C@@H](O)CC[C@]4(C)[C@H]3CC[C@]12C [7-Dehydrocholesterol, 7-dehydrocholesterol]
[4]
  Kd: 26.7 nM
[4]; [5]
  n (number of binding sites per molecule of protein), Table 1: 1.65 mol/mol of protein
[2]
  energy transfer between protein tryptophanyl residues and ligand: energy was transferred

## C=CC1=C(C)c2cc3[nH]c(cc4nc(cc5[nH]c(cc1n2)c(C)c5CCC(=O)O)C(CCC(=O)O)=C4C)c(C)c3C=C [protoporphyrin IX]
[1]
  binding to β-Lg reported (in words): reported to bind

Source: patent US6290974A, “Protein ingredient for carrying lipophilic nutrients” (priority 1998, dated 2001)
